Laboratory results published in patent US6083931A, “Method of inhibiting cancer metastasis” (NGK Insulators, Ltd., priority 1997, dated 2000).
Counter-ions that a name gives are not always drawn.

Columns and labels:
[1] = Acute toxicity test, intravenous, male Wister-strain rats; details: rat, in vivo, intravenous administration, sodium salts, pH 7.0
[2] = test system: rat AH66F cells adhering to mesentery cells (M-cells); test: Inhibition of adhesion of rat AH66F cancer cells to rat mesentery cells (M-cells); assay type: cell-based; details: average over four wells
Source text: The present inventors employed, as a model system for the measurement of the metastasis-inhibiting action upon the cancer cells, a system in which rat ascites hepatoma as extremely malignant cancer cells were adhered to mesenteries of a rat. They also employed a cell system as a simpler technique. As the former cancer cells, AH66F-cells were used, whereas M-cells were used as the latter mesentery cells.
(§1) Mesentery cells (M-cells) originating from a rat was cultivated inside a cell-cultivating well plate with a Dulbecco's Modification of Eagle's Medium (DMEM) containing 5% fetal calf serum (FCS). When the cells spread over the entire face of the well, the cells were washed with DMEM containing no FC3. Further, the cells were cultivated with DMEM containing 10 μg/ml or 100 μg/ml of sialic acid at 37° C. After 45 minutes passed, the well was washed with DMEM, and rat AH66F cells ([…]) and sialic acid at a concentration shown in FIG. 1 were added together with DMEM. […] Then, the number of the cells was measured by a haemacytometer under a microscope (the number of non-adhered cells).
(§2) As a control, only cancer cells were cultivated, the same operations as mentioned above were effected, and the number of the cells were measured (the number of cells in control).
(§3) The adhesive rate (%) of the cancer cells was calculated according to the following calculating formula. […]

[3] = test system: AH66F cells adhering to M-cells; test: Inhibition of adhesion of AH66F cells to M-cells under coexistence of anti-LFA-1 antibody; assay type: cell-based, rat
Method: as §1, with “DMEM. The mixture was cultivated at 37° C. for one hour. After the cultivation, the mixture was stirred for 30 second, and a cultivation supernatant liquid was taken into a sample tube. Into each well was added 200 μl of fresh DMEM, and washing was similarly carried out under stirring for 15 seconds.” for “DMEM.”
as §2, §3

[4] = test system: AH66F cancer cells; test: Life-prolonging effect upon rats with AH66F cancer cells; assay type: in vivo, rat; details: for Survival dates: peritoneally administered, control 7.3 ± 0.3; for Life-prolonging percentage: vs control group
Method: AH66F cancer cells (1×10^6 cells) were each peritoneally administered to Donryu male rats (six week age, 100-120 g, each group--6 rats). Immediately thereafter, a solution of sialic acid (dosage: 10 mg/kg and 100 mg/kg) or physiological saline solution was peritoneally administered in a dosage of 0.5 ml (control group). Then, after sialic acid or physiological saline solution was peritoneally administered over 2 days, survival dates of the rats were observed.
The life-prolonging percentage was calculated according to the following formula. Life-prolonging percentage=[(survival dates of treated group)-(survival dates of control group)/(survival dates of control group]×100

Row | SMILES | LD50 [1] | inhibition at 10 µg/mL ([2]; 10 μg/ml sialic acid) | inhibition at 100 µg/mL ([2]; 100 μg/ml sialic acid) | inhibition at 100 µg/mL ([3]; Rattus norvegicus, 100 μg/ml sialic acid under coexistence of 10 μg/ml anti-LFA-1 antibody) | synergistic effect on adhesion inhibition (in words) ([3]; sialic acid with anti-LFA-1 antibody) | life-prolonging effect, times that of control group ([4]; 10 mg/Kg) | Survival dates ([4]; 10 mg/Kg × 3 days) | Life-prolonging percentage ([4]; 10 mg/Kg × 3 days) | life-prolonging effect, times that of control group ([4]; 100 mg/Kg) | Survival dates ([4]; 100 mg/Kg × 3 days) | Life-prolonging percentage ([4]; 100 mg/Kg × 3 days)
1 | CC(=O)NC1C(O)CC(OC(CO)C(O)C2OC(OC(CO)C(O)C3OC(O)(C(=O)O)CC(O)C3NC(C)=O)(C(=O)O)CC(O)C2NC(C)=O)(C(=O)O)OC1C(O)C(O)CO (stereo not drawn) [trimer] | ≥ 2000 mg/kg |  |  |  |  |  |  |  |  |  | 
2 | CC(=O)N[C@H]1[C@H]([C@H](O)[C@H](O)CO)OC(O)(C(=O)O)C[C@@H]1O (stereo partly drawn) [sialic acid, N-acetylneuraminic acid] |  | 27% | 31% | 7% | synergistic effect | 1.6 times | 11.5 ± 0.4 | 58% | 1.8 times | 13.4 ± 0.4 | 84%
3 | CC(=O)N[C@H]1[C@H]([C@H](O)[C@H](O)CO)OC(O)(C(=O)O)C[C@@H]1O (stereo partly drawn) [sodium salts of sialic acid] | ≥ 2000 mg/kg |  |  |  |  |  |  |  |  |  | 
